Measured values taken from patent publication US9078429B2, “Method of cryopreserving stem cells” (The Governors of the University of Alberta, priority 2004, dated 2015).

System: TF-1 cells
Test: Post-thaw recovery of TF-1 cells by membrane integrity assay (SYTO 13/ethidium bromide) after cryopreservation
Format: cell-based, human
Settings: TF-1 cells in 10% DMSO/RPMI, conventional cooling at a constant rate of 0.9° C./min, then liquid nitrogen, thawed
Experimental: FIG. 12. Membrane integrity of TF-1 cells in 10% DMSO cooled at 1° C./min to various subzero temperatures and then either thawed directly (upper curve) or cooled rapidly at 325° C./min in liquid nitrogen (lower curve) before being thawed.
TF-1 cells (ATCC, Manassas, Va.) were grown at 37° C. in 5% CO2 in RPMI 1640 Medium Modified (ATCC) with 10% fetal bovine serum (FBS) (ATCC), and supplemented with 2 ng/mL recombinant human GM-CSF (Stemcell Technologies, Vancouver, Canada). Cells were maintained between 0.1×10^6 and 1×10^6 cells/mL, according to ATCC guidelines. Prior to experiments, cells were washed twice with serum-free RPMI media and incubated overnight. […]
Cell viability was assessed by a membrane integrity assay. […]
The Syto/EB stain was prepared using 40 μL of 2.5 mM EB stock solution and 10 μL of 5 mM Syto® 13 stock solution mixed with 350 μL 1× phosphate-buffered saline (PBS). […] Fluorescent images were captured using a Leitz Dialux 22 fluorescence (440-480 nm) microscope (Leitz, Germany) fitted with a PIXERA DiRactor (Pixera Corporation, Los Gatos, Calif., USA) digital camera. The Viability Assessment Program (The Great Canadian Computer Company, Spruce Grove, Canada), which counts red versus green pixels was used to quantify cell membrane integrity from digital images (Jomha, 2003). […]

C[S+](C)[O-] [DMSO, dimethyl sulfoxide]
recovery (membrane integrity) after thawing: 63.7%
